Tests used:
[1] = test system: ERK1/2; assay: EGF-induced ERK1/2 activation in HeLa cells; assay type: cell-based, human; details: 1 μM compound for one hour, EGF 17 min
[2] = target: BMK1 (Homo sapiens, UniProt Q13164); assay: EGF-induced BMK1 activation in HeLa cells; assay type: cell-based; details: 1 μM compound for one hour, EGF 17 min
BMK1, sequence (Q13164 whole entry): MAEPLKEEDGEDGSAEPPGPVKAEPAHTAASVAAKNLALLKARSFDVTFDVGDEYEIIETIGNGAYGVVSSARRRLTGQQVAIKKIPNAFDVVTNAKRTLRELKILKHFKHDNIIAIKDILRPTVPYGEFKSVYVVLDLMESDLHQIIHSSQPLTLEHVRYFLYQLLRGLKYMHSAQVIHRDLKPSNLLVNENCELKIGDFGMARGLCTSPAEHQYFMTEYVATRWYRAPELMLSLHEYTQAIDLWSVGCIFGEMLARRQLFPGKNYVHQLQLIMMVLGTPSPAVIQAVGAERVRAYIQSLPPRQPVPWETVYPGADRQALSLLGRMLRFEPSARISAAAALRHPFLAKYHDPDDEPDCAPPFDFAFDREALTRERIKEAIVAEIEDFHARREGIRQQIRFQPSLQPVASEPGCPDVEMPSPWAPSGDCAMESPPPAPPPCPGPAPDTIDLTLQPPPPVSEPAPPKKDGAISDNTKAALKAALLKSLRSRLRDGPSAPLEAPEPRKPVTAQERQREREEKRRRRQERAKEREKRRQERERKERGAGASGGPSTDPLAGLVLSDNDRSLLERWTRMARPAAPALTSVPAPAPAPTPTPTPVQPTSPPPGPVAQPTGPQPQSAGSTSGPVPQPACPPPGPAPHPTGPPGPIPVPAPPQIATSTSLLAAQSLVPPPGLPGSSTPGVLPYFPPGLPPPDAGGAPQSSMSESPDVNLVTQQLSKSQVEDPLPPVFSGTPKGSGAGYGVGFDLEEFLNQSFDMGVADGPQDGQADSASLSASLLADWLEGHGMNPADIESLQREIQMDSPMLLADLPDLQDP

Growth factor-induced activation of cellular BMK1 [2]: not BMK1 activation
SMILES: O=C(NOCC1CC1)c1ccc(F)c(F)c1Nc1ccc(I)cc1Cl [PD184352, reference compound]
Growth factor-induced activation of cellular ERK1/2 [1]: only blocked ERK1/2
